Measured values published in patent publication US6967196B1, “Sulfonamide compounds and uses thereof” (Bristol-Myers Squibb Company, priority 1999, dated 2005).
Structures can show the parent of a compound that is named as a salt. Where two headings read alike, the source gives them in different places. One block for each compound: values may come before it.

System: amyloid β production in transfected H4 (human neuroglioma) cells stably expressing APP constructs
Assay: In vitro cell-based assay of inhibitors of amyloid β production (ELISA)
Conditions: amyloid β in medium by ELISA, read-out: ACTIVITY (IC50, inhibition of amyloid β production)
Summary of the method: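 Sandwich ELISA read-out: Aβ in conditioned medium captured via C-terminal epitope mAb, detected with N-terminus-specific rabbit polyclonal, quantified from a standard curve. Compounds 10-100 μM, ~16 h exposure. Active = ≥50% inhibition vs control without significant cytotoxicity; dose-response follows.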

[1] = transfected H4 cells stably expressing APP, approx. 16 h incubation
[2] = Homo sapiens, 16 h, transfected H4 cells expressing APP, approximately 16 hours incubation
[3] = Homo sapiens, 16 h, transfected H4 cells stably expressing APP, approx. 16 h incubation
[4] = Homo sapiens, 16 h, transfected H4 cells stably expressing APP constructs, approximately 16 hours incubation
[5] = transfected H4 cells stably expressing APP, approximately 16 hours incubation
[6] = transfected H4 cells stably expressing APP constructs, approximately 16 hours incubation
[7] = Homo sapiens, 16 h, transfected H4 cells stably expressing APP, approximately 16 hours incubation

Compound: N-{3-[2-(1-{[(4-chlorophenyl)sulfonyl]-2,5-difluoroanilino}ethyl)phenoxy]propyl}-N-methyl-4-(trifluoromethyl)benzamide [Example 703]
IC50 [1]: 100 to 500 nM

Compound: N-{2-[2-(1-{[(4-chlorophenyl)sulfonyl]-2,5-difluoroanilino}ethyl)phenoxy]ethyl}-N-ethylacrylamide [Example 949]
IC50 [5]: > 500 nM

Compound: N-{3-[2-(1-{[(4-chlorophenyl)sulfonyl]-2,5-difluoroanilino}ethyl)phenoxy]propyl}-N-methyl-2-naphthalenesulfonamide [Example 671]
IC50 [1]: 100 to 500 nM

Compound: 2-((1R)-1-{[(4-chlorophenyl)sulfonyl]-2,5-difluoroanilino}ethyl)-5-fluorobenzyl 4-(trifluoromethyl)benzylcarbamate [Example 658]
IC50 [1]: 100 to 500 nM

Compound: C[C@H](COC(=O)NCCCn1cnnn1)N(c1cc(Cl)ccc1Cl)S(=O)(=O)c1ccc(Cl)cc1 [Example 1248, 4-Chloro-N-(2,5-dichlorophenyl)-N-[2-[[N′-[3-(1H-tetrazol-1-yl)propylamino]carbonyl]oxy]-(R)-1-methylethyl]benzenesulfonamide]
IC50 [6]: ≤ 25 nM

Compound: S-ethyl 4-[2-(1-{[(4-chlorophenyl)sulfonyl]-2,5-difluoroanilino}ethyl)phenoxy]butyl(ethyl)thiocarbamate [Example 790]
IC50 [1]: 100 to 500 nM

Compound: C[C@H](C(=O)NCc1cc(F)ccc1F)N(c1cc(Cl)ccc1F)S(=O)(=O)c1ccc(Cl)cc1 [Example 1356]
IC50 (transfected H4 cells expressing APP, approximately 16 hours incubation): > 500 nM

Compound: N-{3-[2-({[(4-chlorophenyl)sulfonyl]-2,5-difluoroanilino}methyl)phenoxy]propyl}-N,2-dimethylbenzamide [Example 680]
IC50 [1]: 100 to 500 nM

Compound: Cc1ccc(OCCCN2CCCCC2)c(CN(c2cc(F)ccc2F)S(=O)(=O)c2ccc(Cl)cc2)c1 [Example 957, 4-chloro-N-(2,5-difluorophenyl)-N-{5-methyl-2-[3-(1-piperidinyl)propoxy]benzyl}benzenesulfonamide hydrochloride]
IC50 [7]: > 500 nM

Compound: S-ethyl 4-[2-(1-{[(4-chlorophenyl)sulfonyl]-2,5-difluoroanilino}ethyl)phenoxy]ethyl(ethyl)thiocarbamate [Example 830]
IC50 [5]: 100 to 500 nM

Compound: CC[S+]([O-])CCC[C@@H](C)N(c1cc(Cl)ccc1Cl)S(=O)(=O)c1ccc(Cl)cc1 (stereo partly drawn) [Example 1172, 4-chloro-N-[2,5-dichlorophenyl]-N-[1(R)-methyl-(4-ethylsulfinyl)butyl]benzenesulfonamide]
IC50 [6]: ≤ 25 nM

Compound: N-{3-[2-({[(4-chlorophenyl)sulfonyl]-2,5-difluoroanilino}methyl)phenoxy]propyl}-N,4-dimethyl-3-nitrobenzamide [Example 907]
IC50 [5]: > 500 nM

Compound: methyl(6R)-6-[(2,5-dichlorophenyl)-[(4-chlorophenyl)sulfonyl]-amino]-3-thioheptanoic [Example 1185]
IC50 [6]: 25 to 50 nM

Further lines, results first:

IC50 (Homo sapiens, 16 h, transfected H4 cells stably expressing APP, approximately 16 hours incubation, Table B): 50 to 100 nM
Compound: C[C@H](c1ccc(F)cc1CCOC(=O)NCc1ccco1)N(c1cc(F)ccc1F)S(=O)(=O)c1ccc(Cl)cc1 [Example 435, 2-[2-((1R)-1-{[(4-chlorophenyl)sulfonyl]-2,5-difluoroanilino}ethyl)-5-fluorophenyl]ethyl 2 furylmethylcarbamate]

IC50 [2]: 100 to 500 nM
Compound: CC1CCC(NC(=O)[C@@H](C)N(c2cc(Cl)ccc2F)S(=O)(=O)c2ccc(Cl)cc2)CC1 (stereo partly shown) [Example 1342]

IC50 (transfected H4 cells stably expressing APP, approximately 16 hours incubation, Table B): 50 to 100 nM
Compound: CC(c1ccccc1OCCCC(=O)O)N(c1cc(F)ccc1F)S(=O)(=O)c1ccc(Cl)cc1 (stereo not shown) [Example 377, 4-[2-(1-{[(4-Chlorophenyl)sulfonyl]-2,5-difluoroanilino}ethyl)phenoxy]butanoic Acid]

IC50 [3]: 100 to 500 nM
Compound: O=S(=O)(c1ccc(Cl)cc1)N(Cc1ccccc1Cn1ccnc1)c1cc(F)ccc1F [Example 772, 4-chloro-N-(2,5-difluorophenyl)-N-[2-(1H-imidazol-1-ylmethyl)benzyl]benzenesulfonamide]

IC50 [4]: ≤ 25 nM
Compound: CNS(=O)(=O)CCC[C@@H](C)N(c1cc(F)ccc1F)S(=O)(=O)c1ccc(Cl)cc1 [Example 1207, 4-chloro-N-[2,5-difluorophenyl]-N-[4-[(methylamino)sulfonyl]-1(R)-methylbutyl]benzenesulfonamide]

IC50 [3]: 100 to 500 nM
Compound: COc1ccc([S+]([O-])CCCOc2ccccc2CN(c2cc(F)ccc2F)S(=O)(=O)c2ccc(Cl)cc2)cc1 (stereo not shown) [Example 803, 4-chloro-N-(2,5-difluorophenyl)-N-(2-{3-[(4-methoxyphenyl)sulfinyl]propoxy}benzyl)benzenesulfonamide]

IC50 [7]: 100 to 500 nM
Compound: COc1ccc(S(=O)(=O)CCCOc2ccccc2CN(Nc2cc(F)ccc2F)S(=O)(=O)c2ccc(Cl)cc2)cc1 [Example 871, 4-chloro-N-(2,5-difluoroanilino)-N-(2-{3-[(4-methoxyphenyl)sulfonyl]propoxy}benzyl)benzenesulfonamide]

IC50 [5]: > 500 nM
Compound: O=C(/C=C/c1ccccc1CN(c1ccccc1)S(=O)(=O)c1ccc(Cl)cc1)N1CCCC1 [Example 923]

IC50 [7]: > 500 nM
Compound: CC(C)CCCN(Cc1ccccc1OCCCN1CCCCC1)S(=O)(=O)c1ccc(Cl)cc1 [Example 951, 4-chloro-N-(4-methylpentyl)-N-{2-[3-(1-piperidinyl)propoxy]benzyl}benzenesulfonamide hydrochloride]

IC50 [4]: ≤ 25 nM
Compound: C[C@H](CCCS(N)(=O)=O)N(c1cc(Cl)ccc1CO)S(=O)(=O)c1ccc(Cl)cc1 [Example 1235, 4-chloro-N-[5-chloro-2-(hydroxymethyl)phenyl]-N-[4-(aminosulfonyl)-1(R)-methylbutyl]benzenesulfonamide]

IC50 [2]: > 500 nM
Compound: C[C@H](C(=O)N(CCN)c1ccccc1)N(c1cc(Cl)ccc1F)S(=O)(=O)c1ccc(Cl)cc1 [Example 1329]

IC50 [2]: > 500 nM
Compound: CCN(CCNC(=O)[C@@H](C)N(c1cc(Cl)ccc1F)S(=O)(=O)c1ccc(Cl)cc1)c1cccc(C)c1 [Example 1315]

IC50 [2]: > 500 nM
Compound: C[C@H](C(=O)NC[C@@H]1CC[C@H]2C[C@@H]1C2(C)C)N(c1cc(Cl)ccc1F)S(=O)(=O)c1ccc(Cl)cc1 [Example 1323]

IC50 [7]: 100 to 500 nM
Compound: O=S(=O)(c1ccc(Cl)cc1)N(Cc1ccccc1OCCCN1CCCCC1)CC1CCC1 [Example 827, 4-chloro-N-(cyclobutylmethyl)-N-{2-[3-(1-piperidinyl)propoxy]benzyl}benzenesulfonamide hydrochloride]

IC50 [7]: > 500 nM
Compound: O=S(=O)(c1ccc(Cl)cc1)N(Cc1ccccc1C#CCCO)c1ccccc1 [Example 1040, 4-chloro-N-[2-(4-hydroxy-1-butynyl)benzyl}-N-phenylbenzenesulfonamide]

IC50 [2]: ≤ 25 nM
Compound: C[C@H](COC(=O)NCCCn1ncnn1)N(c1cc(Cl)ccc1F)S(=O)(=O)c1ccc(Cl)cc1 [Example 1295]

IC50 [4]: ≤ 25 nM
Compound: C[C@H](CCCS(=O)(=O)N1CCSCC1)N(c1cc(Cl)ccc1Cl)S(=O)(=O)c1ccc(Cl)cc1 [Example 1211, 4-chloro-N-[2,5-dichlorophenyl]-N-[4-[(4-thiomorpholinyl)sulfonyl]-1(R)-methylbutyl]benzenesulfonamide]

IC50 [7]: > 500 nM
Compound: O=S(=O)(c1ccc(Cl)cc1)N(Cc1ccccc1CCCCO)c1ccccc1 [Example 1016, 4-chloro-N-[2-(4-hydroxybutyl)benzyl]-N-phenylbenzenesulfonamide]
